Measurements from paper PMC3673541 (2011).

What was measured:
[1] = system: Oxytricha Nova quadruplex (DNA, G4) GGGGTTTTGGGG; assay: ITC; conditions: Na+ 100 mM; 10 mM cacodylate, 0.5 mM EDTA, pH 6.8
[2] = system: human telomeric DNA (22mer) (DNA, G4) AGGGTTAGGGTTAGGGTTAGGG; assay: ITC; conditions: Na+ 100 mM; 10 mM cacodylate, 0.5 mM EDTA, pH 6.8; one-site model

Ka [1]: (1.8±0.3)×10^5 M^−1
Ka [2]: (2.5±0.2)×10^4 M^−1
SMILES: NC[C@@H]1O[C@H](O[C@H]2[C@@H](O)[C@H](O[C@@H]3[C@@H](O)[C@H](N)C[C@H](N)[C@H]3O[C@H]3O[C@H](CN)[C@@H](O)[C@H](O)[C@H]3N)O[C@@H]2CO)[C@H](N)[C@@H](O)[C@@H]1O
